Experimental data published in US20120129833A1, “CYCLIC KETOENOLS FOR THERAPY” (BAYER PHARMA AKTIENGESELLSCHAFT, priority 2010, published 2012).

Tests used:
[1] = biological target: T1, recombinant human ACC1 (acetyl-CoA carboxylase 1) (Homo sapiens, UniProt Q13085); assay: Human ACC1 enzyme assay (HTRF ADP detection); assay type: biochemical; conditions: 50 μM ATP, 20 μM acetyl-CoA, 15 min pre-incubation, 20 min at 22° C.; read-out: ACC 1 IC50;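 also: ADP by-product quantified by competitive HTRF immunoassay with europium cryptate anti-ADP antibody and d2-labelled ADP, read after 1 h binding at 22 °C, enzyme near 2.5 ng/µl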
T1 construct: NM_198834, amino acids 39—end; FLAG (C); made in house; host or cells: baculovirus-transfected insect cells (Hi5)
Experimental: The basic principle of the assay is the measurement of adenosine diphosphate (ADP), which is formed as a by-product, by means of an HTRF®-based competitive immunoassay (HTRF=Homogeneous Time Resolved Fluorescence).
The amount of complex of d2-labelled ADP and europium cryptate-labelled anti-ADP antibody was then determined by measuring the resonance energy transfer of europium cryptate to d2.

[2] = biological target: T2, ACC2 (acetyl-CoA carboxylase 2) (Homo sapiens, UniProt O00763); assay: Human ACC2 enzyme assay (HTRF ADP detection); assay type: biochemical; conditions: 20 μM acetyl-CoA, 15 min pre-incubation, 20 min at 22° C.; read-out: ACC 2 IC50
T2 construct: catalogue no; 50201, amino acids 39—end, expressed in baculovirus-transfected Sf9 insect cells; His (C); purchased BPS Bioscience (San Diego, Calif.) 50201; host or cells: baculovirus-transfected Sf9 insect cells
T2 sequence (O00763 39-2458 limits assumed): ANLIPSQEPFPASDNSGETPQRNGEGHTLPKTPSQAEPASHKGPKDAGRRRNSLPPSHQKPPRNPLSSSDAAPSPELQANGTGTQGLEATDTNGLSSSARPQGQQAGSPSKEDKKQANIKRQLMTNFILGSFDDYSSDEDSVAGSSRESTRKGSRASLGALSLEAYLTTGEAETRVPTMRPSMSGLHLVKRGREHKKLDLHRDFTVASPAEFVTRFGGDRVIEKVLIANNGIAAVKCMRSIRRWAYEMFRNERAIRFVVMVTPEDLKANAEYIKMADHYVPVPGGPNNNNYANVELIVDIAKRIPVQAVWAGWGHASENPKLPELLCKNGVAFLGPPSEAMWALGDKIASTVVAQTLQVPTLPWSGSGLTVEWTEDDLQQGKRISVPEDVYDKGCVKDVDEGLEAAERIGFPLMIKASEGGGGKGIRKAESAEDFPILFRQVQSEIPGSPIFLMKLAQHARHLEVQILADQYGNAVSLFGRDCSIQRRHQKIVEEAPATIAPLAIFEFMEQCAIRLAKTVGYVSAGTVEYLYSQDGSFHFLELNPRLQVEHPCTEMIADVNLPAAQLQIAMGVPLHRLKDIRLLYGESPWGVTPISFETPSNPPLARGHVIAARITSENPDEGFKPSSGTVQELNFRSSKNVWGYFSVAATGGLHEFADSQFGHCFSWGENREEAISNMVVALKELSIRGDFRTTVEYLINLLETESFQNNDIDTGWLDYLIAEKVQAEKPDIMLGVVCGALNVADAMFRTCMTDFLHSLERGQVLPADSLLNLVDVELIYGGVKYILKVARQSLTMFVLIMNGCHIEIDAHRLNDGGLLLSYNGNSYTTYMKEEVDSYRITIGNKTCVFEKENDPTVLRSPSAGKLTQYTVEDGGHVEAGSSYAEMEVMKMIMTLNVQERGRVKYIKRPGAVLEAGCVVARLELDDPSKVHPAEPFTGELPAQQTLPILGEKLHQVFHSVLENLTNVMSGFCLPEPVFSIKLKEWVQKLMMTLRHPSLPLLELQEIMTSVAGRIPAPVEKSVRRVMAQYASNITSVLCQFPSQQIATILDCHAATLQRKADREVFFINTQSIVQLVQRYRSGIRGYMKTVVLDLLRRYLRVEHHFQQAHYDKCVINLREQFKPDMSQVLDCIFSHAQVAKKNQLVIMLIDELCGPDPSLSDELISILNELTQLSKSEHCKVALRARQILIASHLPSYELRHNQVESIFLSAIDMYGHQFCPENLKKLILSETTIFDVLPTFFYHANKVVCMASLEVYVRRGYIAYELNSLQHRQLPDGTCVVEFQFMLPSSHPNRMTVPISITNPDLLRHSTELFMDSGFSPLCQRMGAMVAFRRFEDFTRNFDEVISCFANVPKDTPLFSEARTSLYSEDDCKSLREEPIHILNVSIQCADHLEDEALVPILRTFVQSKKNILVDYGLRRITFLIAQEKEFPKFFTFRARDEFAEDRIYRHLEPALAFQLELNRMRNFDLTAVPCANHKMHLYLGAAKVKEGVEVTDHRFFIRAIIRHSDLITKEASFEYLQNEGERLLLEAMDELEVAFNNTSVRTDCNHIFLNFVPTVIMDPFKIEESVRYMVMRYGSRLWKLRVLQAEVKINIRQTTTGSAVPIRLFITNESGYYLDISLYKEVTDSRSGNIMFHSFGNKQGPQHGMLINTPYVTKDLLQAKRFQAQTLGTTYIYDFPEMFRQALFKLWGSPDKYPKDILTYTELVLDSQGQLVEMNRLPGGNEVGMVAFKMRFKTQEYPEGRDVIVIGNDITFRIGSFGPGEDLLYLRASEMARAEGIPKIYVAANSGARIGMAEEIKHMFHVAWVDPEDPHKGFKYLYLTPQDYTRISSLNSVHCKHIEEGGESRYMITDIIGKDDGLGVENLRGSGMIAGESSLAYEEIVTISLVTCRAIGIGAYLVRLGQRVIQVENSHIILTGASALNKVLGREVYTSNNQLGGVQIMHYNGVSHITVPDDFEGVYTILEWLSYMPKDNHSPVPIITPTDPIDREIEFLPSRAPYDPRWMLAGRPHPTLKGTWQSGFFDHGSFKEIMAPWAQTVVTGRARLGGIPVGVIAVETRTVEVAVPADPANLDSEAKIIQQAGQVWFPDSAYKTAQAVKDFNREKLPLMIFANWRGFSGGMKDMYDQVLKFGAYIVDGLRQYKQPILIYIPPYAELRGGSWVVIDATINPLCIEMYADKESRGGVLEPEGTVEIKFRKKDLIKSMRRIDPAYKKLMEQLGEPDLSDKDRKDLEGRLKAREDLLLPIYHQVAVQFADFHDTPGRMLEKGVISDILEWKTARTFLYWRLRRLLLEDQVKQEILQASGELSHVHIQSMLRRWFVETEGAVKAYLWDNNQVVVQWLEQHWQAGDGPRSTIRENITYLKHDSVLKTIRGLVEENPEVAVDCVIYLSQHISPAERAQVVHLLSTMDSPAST

Compound	IC50 [1]	IC50 [2]
CC1(C)COC2(CCC3(CC2)NC(=O)C(c2cc(-c4ccc(Cl)cc4)ccc2Cl)=C3O)OC1 [Example 1-65, 3-(4,4′-dichlorobiphenyl-3-yl)-4-hydroxy-11,11-dimethyl-9,13-dioxa-1-azadispiro[4.2.5.2]pentadec-3-en-2-one]	934 nM	9470 nM
Cc1ccc(-c2ccc(Cl)cc2)cc1C1=C(O)C(C)(C2CCCCC2)OC1=O (stereo not shown) [Example 2-40, 3-(4′-chloro-4-methylbiphenyl-3-yl)-5-cyclohexyl-4-hydroxy-5-methylfuran-2(5H)-one]	1220 nM	> 20000 nM
Cc1ccc(-c2ccc(Cl)cc2)cc1C1=C(O)C2(CCCOC2)NC1=O (stereo not shown) [Example 1-5, 3-(4′-chloro-4-methylbiphenyl-3-yl)-4-hydroxy-7-oxa-1-azaspiro[4.5]dec-3-en-2-one]	287 nM	8240 nM
Cc1cc(C)c(-c2ccc(Cl)cc2)cc1C1=C(O)C(C)OC1=O (stereo not shown) [Example 2-45, 3-(4′-chloro-4,6-dimethylbiphenyl-3-yl)-4-hydroxy-5-methylfuran-2(5H)-one]	568 nM	17000 nM
COC1CCC2(CC1)OC(=O)C(c1c(C)ccc(-c3ccc(Cl)cc3)c1C)=C2O (stereo not shown) [Example 2-34, 3-(4′-chloro-2,4-dimethylbiphenyl-3-yl)-4-hydroxy-8-methoxy-1-oxaspiro[4.5]dec-3-en-2-one]	286 nM	1270 nM
CCOC1CCCC2(C1)NC(=O)C(c1c(C)ccc(-c3ccc(Cl)cc3)c1C)=C2O (stereo not shown) [Example 1-73, 3-(4′-chloro-2,4-dimethylbiphenyl-3-yl)-7-ethoxy-4-hydroxy-1-azaspiro[4.5]dec-3-en-2-one]	912 nM	4970 nM
Cc1ccc(-c2ccc(C)c(C3=C(O)C4(CCCCC4)NC3=O)c2)cc1 [Example 1-13, 3-(4,4′-dimethylbiphenyl-3-yl)-4-hydroxy-1-azaspiro[4.5]dec-3-en-2-one]	353 nM	18900 nM
Cc1ccc(-c2ccc(Cl)cc2)cc1C1=C(O)C2(CCCC(C)C2)NC1=O (stereo not shown) [Example 1-82, 3-(4′-chloro-4-methylbiphenyl-3-yl)-4-hydroxy-7-methyl-1-azaspiro[4.5]dec-3-en-2-one]	542 nM	433 nM
CC[C@]1(OC)CC[C@@]2(CC1)NC(=O)C(c1c(C)ccc(-c3ccc(F)cc3)c1C)=C2O [Example 1-89, (5r,8r)-8-ethyl-3-(4′-fluoro-2,4-dimethylbiphenyl-3-yl)-4-hydroxy-8-methoxy-1-azaspiro[4.5]dec-3-en-2-one]	858 nM	> 20000 nM

Further lines, results first:

IC50 [1]	IC50 [2]	Compound
806 nM	9080 nM	Cc1ccc(-c2ccc(Cl)cc2)cc1C1=C(O)C(C)(C)CNC1=O [Example 9-2, 3-(4′-chloro-4-methylbiphenyl-3-yl)-4-hydroxy-5,5-dimethyl-5,6-dihydropyridin-2(1H)-one]
319 nM	> 20000 nM	Cc1ccc(-c2ccc(Cl)cc2)cc1C1=C(O)CC(C)(C)NC1=O [Example 9-1, 3-(4′-chloro-4-methylbiphenyl-3-yl)-4-hydroxy-6,6-dimethyl-5,6-dihydropyridin-2(1H)-one]
625 nM	> 20000 nM	Cc1ccc(-c2ccc(Cl)cc2)cc1-c1c(O)c2ccccc2[nH]c1=O [Example 9-5, 3-(4′-chloro-4-methylbiphenyl-3-yl)-4-hydroxyquinolin-2(1H)-one]
1090 nM	18900 nM	Cc1ccc(-c2ccc(C(F)(F)F)cc2)cc1-c1c(O)c2ccc(Cl)cc2[nH]c1=O [Example 9-6, 7-chloro-4-hydroxy-3-[4-methyl-4′-(trifluoromethyl)biphenyl-3-yl]quinolin-2(1H)-one]
1370 nM	> 20000 nM	Cc1ccc(-c2ccc(F)c(Cl)c2)cc1C1=C(O)C2(CCCC2)OC1=O [Example 2-23, 3-(3′-chloro-4′-fluoro-4-methylbiphenyl-3-yl)-4-hydroxy-1-oxaspiro[4.4]non-3-en-2-one]
